Test results from patent publication US20110086759A1, “CHEMICAL COMPOUNDS” (SYNGENTA CROP PROTECTION, INC., priority 2007, published 2011).

How the values were obtained:
Type in all cases: in vivo
[1] = tested on: Alopecurus myosuroides (ALOMY); test: Pre-emergence biological efficacy, glasshouse pot test; details: 312 h, pre-emergence, rate 1,000 g/ha, evaluated after 13 days (100=total damage to plant; 0=no damage), read-out: Percentage damage caused to weed species, ALOMY
In short: (§1)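 One day after sowing in standard soil, pots were sprayed with compound in acetone/water (50:50) with 0.5% Tween 20, at 1000 or 250 g/ha. Plants grew at 24/16° C day/night, 14 h light, 65% humidity. Damage was scored after 13 days (0 = none, 100 = total).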

[2] = tested on: Amaranthus retoflexus (AMARE); test: as above; details: Amaranthus retroflexus, 312 h; pre-emergence, rate 1,000 g/ha, evaluated after 13 days (100=total damage to plant; 0=no damage); read-out: Percentage damage caused to weed species, AMARE
In short: as §1

[3] = tested on: Echinochloa crus-galli (ECHCG); test: as above; details: 312 h, pre-emergence, rate 1,000 g/ha, evaluated after 13 days (100=total damage to plant; 0=no damage), read-out: Percentage damage caused to weed species, ECHCG
In short: as §1

[4] = tested on: Ipomea hederaceae (IPOHE); test: as above; details: Ipomoea hederacea, 312 h; pre-emergence, rate 1,000 g/ha, evaluated after 13 days (100=total damage to plant; 0=no damage); read-out: Percentage damage caused to weed species, IPOHE
In short: as §1

Setaria faberi (SETFA) [5] = test: as above; details: 312 h, pre-emergence, rate 1,000 g/ha, evaluated after 13 days (100=total damage to plant; 0=no damage), read-out: Percentage damage caused to weed species, SETFA
In short: as §1

Solanum nigrum (SOLNI) [6] = test: as above; details: 312 h, pre-emergence, rate 1,000 g/ha, evaluated after 13 days (100=total damage to plant; 0=no damage), read-out: Percentage damage caused to weed species, SOLNI
In short: as §1

[7] = tested on: Alopecurus myosuroides (ALOMY); test: Post-emergence biological efficacy, glasshouse pot test; details: 312 h, Rate 1,000 g/ha, post-emergence spray, evaluated after 13 days (100=total damage to plant; 0=no damage to plant), read-out: Percentage damage caused to weed species, post-emergence, ALOMY
In short: (§2)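 Pot-grown weeds were sprayed 8 days after sowing with test compound in acetone/water (50:50) with 0.5% Tween 20 at 1000 or 250 g/ha. Glasshouse at 24/16° C day/night, 14 h light, 65% humidity. Damage scored 0-100 (100 = total damage) after 13 days.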

[8] = tested on: Amaranthus retoflexus (AMARE); test: as above; details: Amaranthus retroflexus, 312 h; Rate 1,000 g/ha; post-emergence spray; evaluated after 13 days (100=total damage to plant; 0=no damage to plant); read-out: Percentage damage caused to weed species, post-emergence, AMARE
In short: as §2

[9] = tested on: Echinochloa crus-galli (ECHCG); test: as above; details: 312 h, Rate 1,000 g/ha, post-emergence spray, evaluated after 13 days (100=total damage to plant; 0=no damage to plant), read-out: Percentage damage caused to weed species, post-emergence, ECHCG
In short: as §2

[10] = tested on: Ipomea hederaceae (IPOHE); test: as above; details: Ipomoea hederacea, 312 h; Rate 1,000 g/ha; post-emergence spray; evaluated after 13 days (100=total damage to plant; 0=no damage to plant); read-out: Percentage damage caused to weed species, post-emergence, IPOHE
In short: as §2

Setaria faberi (SETFA) [11] = test: as above; details: 312 h, Rate 1,000 g/ha, post-emergence spray, evaluated after 13 days (100=total damage to plant; 0=no damage to plant), read-out: Percentage damage caused to weed species, post-emergence, SETFA
In short: as §2

Solanum nigrum (SOLNI) [12] = test: as above; details: 312 h, Rate 1,000 g/ha, post-emergence spray, evaluated after 13 days (100=total damage to plant; 0=no damage to plant), read-out: Percentage damage caused to weed species, post-emergence, SOLNI
In short: as §2

Structure (SMILES)	pest or weed control at 1000 g/ha [1]	pest or weed control at 1000 g/ha [2]	pest or weed control at 1000 g/ha [3]	pest or weed control at 1000 g/ha [4]	pest or weed control at 1000 g/ha (Setaria faberi (SETFA) [5])	pest or weed control at 1000 g/ha (Solanum nigrum (SOLNI) [6])	pest or weed control at 1000 g/ha [7]	pest or weed control at 1000 g/ha [8]	pest or weed control at 1000 g/ha [9]	pest or weed control at 1000 g/ha [10]	pest or weed control at 1000 g/ha (Setaria faberi (SETFA) [11])	pest or weed control at 1000 g/ha (Solanum nigrum (SOLNI) [12])
COC(=O)c1nc(-c2ccc(F)c(Cl)c2)nc(NCc2ccco2)c1Cl [Compound 245-48, 5-Chloro-2-(3-chloro-4-fluorophenyl)-4-(furan-2-yl-methyl-amino)-6-methoxy-carbonylpyrimidine]	30%	80%	30%	20%	30%	10%	20%	100%	40%	60%	70%	90%
COC(=O)c1nc(-c2ccc(F)c(F)c2F)nc(NCc2ccco2)c1Cl [Compound 247-48, 5-Chloro-4-(furan-2-ylmethylamino)-6-methoxycarbonyl-2-(2,3,4-trifluoro-phenyl)pyrimidine]	10%	90%	10%	40%	20%	40%	30%	100%	60%	60%	40%	90%
COC(=O)c1nc(-c2ccc(OC(F)(F)F)cc2)nc(NCc2ccco2)c1Cl [Compound 248-48, 5-Chloro-4-(furan-2-ylmethylamino)-6-methoxycarbonyl-2-(4-trifluoromethoxy-phenyl)pyrimidine]	0%	60%	0%	0%	0%	20%	0%	70%	40%	50%	0%	70%
COC(=O)c1nc(-c2cccc(OC)c2F)nc(NCc2ccco2)c1Cl [Compound 249-48, 5-Chloro-2-(2-fluoro-3-methoxyphenyl)-4-(furan-2-ylmethyl-amino)-6-methoxy-carbonylpyrimidine]	0%	70%	0%	20%	20%	30%	0%	70%	0%	30%	0%	70%
COC(=O)c1nc(-c2ccc(OC)cc2)nc(NCc2ccco2)c1Cl [Compound 250-48, 5-Chloro-4-(furan-2-ylmethylamino)-2-(4-methoxyphenyl)-6-methoxycarbonyl-pyrimidine]	0%	30%	0%	0%	20%	0%	0%	90%	30%	30%	50%	40%
